Measurements: ChEMBL document CHEMBL5537211, “Synthesis and Antifungal Activity of Stereoisomers of Mefloquine Analogs” (2024)
Converted amounts (≈) assume the structure as drawn.

Assays:
Type in all cases: functional
Cryptococcus neoformans [1] = assay: Antifungal activity against Cryptococcus neoformans H99 assessed as fungal growth inhibition incubated for 72 hrs by CLSI protocol based microbroth dilution assay
Candida albicans [2] = assay: Antifungal activity against Candida albicans SC5314 assessed as fungal growth inhibition incubated for 24 hrs by CLSI protocol based microbroth dilution assay
Candida albicans [3] = assay: Antifungal activity against Candida albicans by CLSI M27-A3 protocol based absorbance assay
Cryptococcus neoformans [4] = assay: Antifungal activity against Cryptococcus neoformans by CLSI M27-A3 protocol based absorbance assay
Cryptococcus neoformans [5] = assay: Antifungal activity against Cryptococcus neoformans
Candida albicans [6] = assay: Antifungal activity against Candida albicans
[7] = Selectivity ratio of MIC for antifungal activity against Candida albicans SC5314 to MIC for antifungal activity against Cryptococcus neoformans H99

| SMILES | MIC (Cryptococcus neoformans [1]) [µg/mL] | MIC (Candida albicans [2]) [µg/mL] | MIC (Candida albicans [3]) [µg/mL] | MIC (Cryptococcus neoformans [4]) [µg/mL] | MIC (Cryptococcus neoformans [5]) [µg/mL] | MIC (Candida albicans [6]) [µg/mL] | Selectivity ratio [7] |
| --- | --- | --- | --- | --- | --- | --- | --- |
| O[C@H](c1cc(-c2ccc(Cl)cc2)nc2c(Cl)cccc12)[C@@H]1CCCCN1 | 1 (≈ 2.58 µM) | 4 (≈ 10.3 µM) |  |  |  |  |  |
| O[C@@H](c1cc(-c2ccc(Cl)cc2)nc2c(Cl)cccc12)[C@@H]1CCCCN1 | 2 (≈ 5.16 µM) | 8 (≈ 20.7 µM) |  |  |  |  |  |
| O[C@H](c1cc(-c2ccc(Cl)cc2)nc2c(Cl)cccc12)[C@H]1CCCCN1 | 2 (≈ 5.16 µM) | 8 (≈ 20.7 µM) |  |  |  |  |  |
| O[C@@H](c1cc(-c2ccc(Cl)cc2)nc2c(Cl)cccc12)[C@H]1CCCCN1 | 1 (≈ 2.58 µM) | 4 (≈ 10.3 µM) |  |  |  |  |  |
| OC(c1cc(-c2ccc(Cl)cc2)nc2c(Cl)cccc12)C1CCCCN1 (racemic) | 2 (≈ 5.16 µM) | 8 (≈ 20.7 µM) | 4 (≈ 10.3 µM) | 1 (≈ 2.58 µM) |  |  |  |
| Cl.O[C@@H](c1cc(-c2ccc(Cl)cc2)nc2ccccc12)[C@H]1CCCCN1 (racemic) | 8 | 16 |  |  |  |  |  |
| OC(c1cc(C2CC3CCC2CC3)nc2c(Cl)cc(Cl)cc12)C1CCCCN1 (racemic) |  |  |  |  | 0.4 (≈ 0.954 µM) | 1.5 (≈ 3.58 µM) |  |
| Cl.O[C@@H](c1cc(-c2ccc(Cl)cc2)nc2ccccc12)[C@@H]1CCCCN1 (racemic) | 16 | 64 |  |  |  |  |  |
| O[C@@H](c1cc(C(F)(F)F)nc2c(C(F)(F)F)cccc12)[C@H]1CCCCN1 (racemic) [(S,R)-MEFLOQUINE] | 16 (≈ 42.3 µM) | 128 (≈ 338 µM) |  |  | 32 (≈ 84.6 µM) | > 128 | 8 |
| OC(Cn1cncn1)(Cn1cncn1)c1ccc(F)cc1F [FLUCONAZOLE] | 2 (≈ 6.53 µM) | ≤ 0.125 |  |  |  |  |  |
